According to patent US20060252807A1, “Novel ortho-terphenyl inhibitors of p38 kinase and methods of treating inflammatory disorders” (Kalypsys, Inc., priority 2005, published 2006):

molecular target: T1, active p38 alpha enzyme (Upstate Biotechnology) (Homo sapiens, UniProt Q16539); test: p38α biochemical assay (ATP turnover, luminescent detection, Cambrex PKlight); conditions: p38α kinase; Table 1 Biological Activity
T1 construct: purchased Upstate Biotechnology
In short: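 In this kinase reaction, p38α used MapkapK2 as phosphorylation substrate at low ATP (1.4 uM final) over 2 hours at 30C, and activity was followed as ATP turnover by luminescence.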

T1 sequence (Q16539 whole entry): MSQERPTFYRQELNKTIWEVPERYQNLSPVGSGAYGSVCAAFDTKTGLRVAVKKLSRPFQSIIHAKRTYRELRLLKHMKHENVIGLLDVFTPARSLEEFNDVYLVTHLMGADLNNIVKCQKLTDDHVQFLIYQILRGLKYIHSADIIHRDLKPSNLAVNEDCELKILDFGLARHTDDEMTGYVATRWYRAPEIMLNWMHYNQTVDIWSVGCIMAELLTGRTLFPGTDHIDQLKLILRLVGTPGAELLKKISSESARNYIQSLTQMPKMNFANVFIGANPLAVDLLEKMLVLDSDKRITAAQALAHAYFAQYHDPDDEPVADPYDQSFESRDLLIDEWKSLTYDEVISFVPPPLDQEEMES

IC50, > 1000 nM:
O=C(N[C@H](CO)Cc1ccccc1)c1csc(-c2c(-c3ccc(F)cc3)n[nH]c2C2CCNCC2)n1 [Example 2121]
COc1ccc(CCNC(=O)c2csc(-c3c(-c4ccc(F)cc4)n[nH]c3C3CCNCC3)n2)cc1 [Example 2122]
COc1ccccc1CCNC(=O)c1csc(-c2c(-c3ccc(F)cc3)n[nH]c2C2CCNCC2)n1 [Example 2123]
CCOc1ccccc1CNC(=O)c1csc(-c2c(-c3ccc(F)cc3)n[nH]c2C2CCNCC2)n1 [Example 2124]
COc1ccc(NC(=O)c2csc(-c3c(-c4ccc(F)cc4)n[nH]c3C3CCNCC3)n2)cc1OC [Example 2125]
O=C(NCCc1ccccc1Cl)c1csc(-c2c(-c3ccc(F)cc3)n[nH]c2C2CCNCC2)n1 [Example 2126]
O=C(NCCc1ccc(Cl)cc1)c1csc(-c2c(-c3ccc(F)cc3)n[nH]c2C2CCNCC2)n1 [Example 2127]
O=C(NCCc1cccc(Cl)c1)c1csc(-c2c(-c3ccc(F)cc3)n[nH]c2C2CCNCC2)n1 [Example 2128]
CC1(C)CC(NC(=O)c2csc(-c3c(-c4ccc(F)cc4)n[nH]c3C3CCNCC3)n2)CC(C)(C)N1 [Example 2129]
CCN(CC)CCCC(C)NC(=O)c1csc(-c2c(-c3ccc(F)cc3)n[nH]c2C2CCNCC2)n1 (centres unmarked) [Example 2130]
O=C(NCc1ccc(F)c(Cl)c1)c1csc(-c2c(-c3ccc(F)cc3)n[nH]c2C2CCNCC2)n1 [Example 2131]
N#CCCN(Cc1ccccc1)C(=O)c1csc(-c2c(-c3ccc(F)cc3)n[nH]c2C2CCNCC2)n1 [Example 2132]
CC(C)(C)OC(=O)NCCNC(=O)c1csc(-c2c(-c3ccc(F)cc3)n[nH]c2C2CCNCC2)n1 [Example 2133]
O=C(NCCc1c[nH]c2ccccc12)c1csc(-c2c(-c3ccc(F)cc3)n[nH]c2C2CCNCC2)n1 [Example 2134]
CC(C)(C)c1ccc(CNC(=O)c2csc(-c3c(-c4ccc(F)cc4)n[nH]c3C3CCNCC3)n2)cc1 [Example 2135]
CN(CCCNC(=O)c1csc(-c2c(-c3ccc(F)cc3)n[nH]c2C2CCNCC2)n1)c1ccccc1 [Example 2136]
O=C(NCC1(O)CCCCC1)c1csc(-c2c(-c3ccc(F)cc3)n[nH]c2C2CCNCC2)n1 [Example 2137]
COc1cc(CNC(=O)c2csc(-c3c(-c4ccc(F)cc4)n[nH]c3C3CCNCC3)n2)cc(OC)c1 [Example 2138]
COc1ccc(CNC(=O)c2csc(-c3c(-c4ccc(F)cc4)n[nH]c3C3CCNCC3)n2)cc1OC [Example 2139]
O=C(CNC(=O)c1csc(-c2c(-c3ccc(F)cc3)n[nH]c2C2CCNCC2)n1)c1ccccc1 [Example 2140]
CCOC(=O)N1CCC(NC(=O)c2csc(-c3c(-c4ccc(F)cc4)n[nH]c3C3CCNCC3)n2)CC1 [Example 2141]
CC(C)(C)OC(=O)NCCCNC(=O)c1csc(-c2c(-c3ccc(F)cc3)n[nH]c2C2CCNCC2)n1 [Example 2142]
O=C(NCc1ccc(C(F)(F)F)cc1)c1csc(-c2c(-c3ccc(F)cc3)n[nH]c2C2CCNCC2)n1 [Example 2143]
O=C(NCc1cccc(C(F)(F)F)c1)c1csc(-c2c(-c3ccc(F)cc3)n[nH]c2C2CCNCC2)n1 [Example 2144]
O=C(NCc1ccc(Cl)c(Cl)c1)c1csc(-c2c(-c3ccc(F)cc3)n[nH]c2C2CCNCC2)n1 [Example 2145]
O=C(NCc1ccc(Cl)cc1Cl)c1csc(-c2c(-c3ccc(F)cc3)n[nH]c2C2CCNCC2)n1 [Example 2146]
